From patent publication US12661388B2, “Assessing and treating acute decompensated heart failure” (Mayo Foundation for Medical Education and Research, priority 2020, dated 2026)

Experiments:
human GC-B = target: T1, human GC-B (Homo sapiens, UniProt P20594); experiment: cGMP generation in HEK293 cells transfected with human GC-B receptor; format: cell-based; details: vs vehicle; for cGMP generation: HEK293 cells overexpressing human GC-B, 10^-8, 10^-7, 10^-6 M, 10 minutes
T1 construct: host or cells: HEK293
T1 sequence (P20594 23-1047): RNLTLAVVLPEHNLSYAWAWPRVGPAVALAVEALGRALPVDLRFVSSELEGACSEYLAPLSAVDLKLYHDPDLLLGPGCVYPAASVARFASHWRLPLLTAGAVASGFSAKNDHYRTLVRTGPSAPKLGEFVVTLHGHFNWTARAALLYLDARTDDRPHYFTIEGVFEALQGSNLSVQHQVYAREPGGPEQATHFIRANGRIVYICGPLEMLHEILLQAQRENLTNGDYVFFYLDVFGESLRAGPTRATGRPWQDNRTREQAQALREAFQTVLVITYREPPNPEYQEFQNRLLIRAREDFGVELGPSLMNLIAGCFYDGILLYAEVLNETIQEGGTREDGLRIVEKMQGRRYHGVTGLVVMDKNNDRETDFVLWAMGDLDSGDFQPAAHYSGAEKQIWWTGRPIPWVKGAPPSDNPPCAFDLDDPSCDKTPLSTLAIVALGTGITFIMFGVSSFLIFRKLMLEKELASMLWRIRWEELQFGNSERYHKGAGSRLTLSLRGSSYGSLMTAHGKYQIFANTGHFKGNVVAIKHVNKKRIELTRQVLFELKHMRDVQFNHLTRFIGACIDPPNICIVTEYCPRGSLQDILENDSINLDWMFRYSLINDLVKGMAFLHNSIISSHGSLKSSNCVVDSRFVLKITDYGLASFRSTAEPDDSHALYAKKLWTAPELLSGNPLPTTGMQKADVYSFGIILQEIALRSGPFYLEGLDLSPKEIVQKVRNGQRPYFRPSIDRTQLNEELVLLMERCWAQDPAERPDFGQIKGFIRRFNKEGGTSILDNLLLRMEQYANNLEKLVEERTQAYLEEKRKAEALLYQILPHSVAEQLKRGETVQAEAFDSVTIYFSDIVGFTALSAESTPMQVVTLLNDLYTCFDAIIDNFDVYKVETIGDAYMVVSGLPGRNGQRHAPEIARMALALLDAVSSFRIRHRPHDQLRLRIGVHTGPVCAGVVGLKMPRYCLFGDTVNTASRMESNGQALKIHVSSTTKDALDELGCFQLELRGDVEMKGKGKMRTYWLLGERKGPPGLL
Source text: (§1) cGMP Generation in HEK293 Cells Transfected with Human GC-B or GC-A Receptor In Vitro: HEK293 cells were stably transfected with either human GC-B or GC-A (cDNA clones from Origene, Rockville, MD) using LIPOFECTAMINE® (Invitrogen, Grand Island, NY). Receptors overexpression was verified with immunofluorescence and western blotting. GC-B/-A transfected HEK293 cells were maintained in Dulbecco's modified Eagle's medium supplemented with 10% fetal bovine serum, 100 U/mL penicillin, 100 U/mL streptomycin, and 250 μg/mL G418. Cells were seeded in 48-well plates and cultured overnight to reach 80-90% confluency. The treatment buffer that includes, Hank's Balanced Salt Solution (HBSS) including 0.1% BSA, 2 mM HEPES and 0.5 mM 3-isobutyl-1-methylzanthine (IBMX—a non-specific phosphodiesterase inhibitor, Sigma, St. Louis, MO), was used in all experiments. HEK293 cells received treatment buffer (vehicle) only was used as a negative control and ANP (10^−8M) was used as a positive control in HEK293 GC-A cells and CNP (10^−8 M) was used as a positive control in HEK293 GC-B cells. Concentrations of CD-NP, CRRL-404, CRRL-405, CRRL-407 or CRRL=408 (10^−8, 10^−7, and 10^−6 M) in HBSS were incubated with HEK293 transfected GC-B or GC-A cells for 10 minutes. After treatment, all cells were washed with phosphate buffered solution (PBS) once and lysed with 0.1M HCl. Intracellular cGMP was measured in the lysate using a commercial cGMP ELISA kit (Enzo Life Sciences, Farmingdale, NY) as instructed by the manufacturer.
(§2) cGMP Assay: The ELISA plate was coated in neutralizing solution (50 μL), prior to addition of samples and standards. Cell lysates (100 μL) and standards (100 μL), in 0.1M HCL, were incubated with cGMP conjugate (50 μL) and cGMP antibody (50 μL) at room temperature for 2 hours, 500 rpm. The plates were washed 4 times and 200 μL of pNPP substrate was added in each well and incubated for 1 hour at room temperature. The reaction was stopped by adding stop solution and absorbance was read at 405 nm and corrected for plate imperfections at 570 nm using SpectramaxM2. Standard curve was generated using the Softmaxpro software and unknown concentrations were extrapolated based on the standard curve. Samples exceeding the standard curve were diluted as needed in 0.1M HCl and corresponding dilution factors were applied to extrapolate final concentrations. The standard curve range is from 0.8 pmol/mL-500 pmol/mL. The % CV at EC50 is 6.6%.

human GC-A = target: T2, human GC-A (Homo sapiens, UniProt P16066); experiment: cGMP generation in HEK293 cells transfected with human GC-A receptor; format: cell-based; details: vs vehicle; for cGMP generation: HEK293 cells overexpressing human GC-A, 10^-8, 10^-7, 10^-6 M, 10 minutes
T2 construct: host or cells: HEK293
T2 sequence (P16066 33-1061): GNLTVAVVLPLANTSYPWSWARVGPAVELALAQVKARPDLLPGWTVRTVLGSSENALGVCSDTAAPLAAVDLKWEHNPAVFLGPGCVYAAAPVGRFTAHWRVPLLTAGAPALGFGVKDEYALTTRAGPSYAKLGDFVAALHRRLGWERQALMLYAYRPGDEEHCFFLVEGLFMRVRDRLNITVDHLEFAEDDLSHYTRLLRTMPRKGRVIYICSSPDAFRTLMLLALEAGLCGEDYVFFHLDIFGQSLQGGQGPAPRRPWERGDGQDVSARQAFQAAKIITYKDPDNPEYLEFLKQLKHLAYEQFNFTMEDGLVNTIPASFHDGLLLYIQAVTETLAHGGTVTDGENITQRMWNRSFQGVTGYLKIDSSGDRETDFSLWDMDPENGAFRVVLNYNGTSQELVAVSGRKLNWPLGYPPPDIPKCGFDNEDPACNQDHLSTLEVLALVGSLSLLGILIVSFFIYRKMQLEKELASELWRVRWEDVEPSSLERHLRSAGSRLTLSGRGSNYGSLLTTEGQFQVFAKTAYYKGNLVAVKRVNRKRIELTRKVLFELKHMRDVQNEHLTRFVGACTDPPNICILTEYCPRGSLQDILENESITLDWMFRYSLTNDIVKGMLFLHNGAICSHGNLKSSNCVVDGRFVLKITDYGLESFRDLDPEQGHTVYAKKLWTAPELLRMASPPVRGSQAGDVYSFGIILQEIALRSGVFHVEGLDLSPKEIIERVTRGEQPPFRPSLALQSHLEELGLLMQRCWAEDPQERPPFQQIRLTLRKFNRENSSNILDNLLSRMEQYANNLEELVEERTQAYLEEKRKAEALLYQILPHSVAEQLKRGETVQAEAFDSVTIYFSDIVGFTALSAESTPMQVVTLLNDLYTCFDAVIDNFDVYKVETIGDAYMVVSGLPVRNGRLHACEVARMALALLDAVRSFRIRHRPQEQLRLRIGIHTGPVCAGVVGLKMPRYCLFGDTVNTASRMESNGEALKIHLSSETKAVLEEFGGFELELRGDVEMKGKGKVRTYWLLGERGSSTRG
Source text: as §1, §2

normal rats = experiment: Acute IV infusion in vivo study, plasma and urinary cGMP; set-up: species or system rat; details: IV infusion 2.12 μg/kg/min, vs vehicle (saline)
Description: Acute IV Infusion In Vivo Study: the cGMP generating actions of 2.12 μg/kg/minute dose CRRL-408 or vehicle (0.9% normal saline) [n=4/group] was investigated in normal rats (approximately 2 months old; 200-250 grams; Envigo, East Millstone, NJ). Studies were performed in accordance with the Animal Welfare Act and with approval of the Mayo Clinic Institutional Animal Care and Use Committee.
Rats were anesthetized with isoflurane (2-3% in oxygen) and were subjected to vessel and bladder cannulation for peptide/vehicle infusion, blood sampling and urine collection. A polyethylene (PE)-50 tube catheter was placed into the jugular vein for CRRL-408/vehicle intravenous (IV) infusion. The carotid artery was cannulated with a PE-50 tube catheter for blood sampling. The bladder was accessed and cannulated with a PE-50 tube catheter for passive urine collection. After completion of the above procedural set up, a 30 minute equilibration period was performed that included continuous IV saline infusion. After the 30 minute equilibration period the saline infusion was replaced by a continuous IV infusion (75 min including a 15 minute lead-in period) of 2.12 μg/kg/minute dose of CRRL-408 or vehicle. The infusion rate was weight adjusted and calculated as follows: rat weight (grams)*0.7/60/100 mL/minute. […]

[1] = test system: human renal fibroblasts (HRFs); experiment: cGMP generation in human primary renal fibroblasts; format: cell-based; details: 10^-8, 10^-7, 10^-6 M, 10 minutes, vs vehicle
Description: (§3) cGMP Generation in Human Primary Renal Cells: Human primary renal fibroblasts (HRFs, Cell Biologics, Chicago, IL) and human renal proximal tubular epithelial cells (HRPTCs, ScienCell Research Laboratories, Carlsbad, CA) were maintained and sub-cultured according to the manufacturer's protocols. Briefly, the cells were grown in 6-well plates until 80% confluency and were then treated with treatment buffer (vehicle; HBSS including 0.1% BSA, 2 mM HEPES and 0.5 mM IBMX) alone or with concentrations of CRRL-408 (10^−8, 10^−7 and 10^−6 M) for 10 minutes. Cells were washed with PBS once and lysed with 0.1M HCl. Intracellular cGMP was measured in the lysate using a commercial cGMP ELISA kit (Enzo Life Sciences, Farmingdale, NY) as instructed by the manufacturer described below.
(§4) cGMP Assay: The ELISA plate was coated in neutralizing solution (50 μL), prior to addition of samples and standards. Cell lysates (100 μL) and standards (100 μL), in 0.1M HCL, were incubated with cGMP conjugate (50 μL) and cGMP antibody (50 μL) at room temperature for 2 hours, 500 rpm. The plates were washed 4 times and 200 μL of pNPP substrate was added in each well and incubated for 1 hour at room temperature. The reaction was stopped by adding stop solution and absorbance was read at 405 nm and corrected for plate imperfections at 570 nm using SpectramaxM2. […]

[2] = test system: human renal proximal tubular cells (HRPTCs); experiment: cGMP generation in human renal proximal tubular epithelial cells; format: cell-based; details: 10^-8, 10^-7, 10^-6 M, 10 minutes, vs vehicle
Description: as §3, §4

GLSKGCFGLKLDRIGSMSGLGCPSLRDPRPNAP STSA [CD-NP, reference compound]
cGMP generation (human GC-B): stimulated cGMP generation
cGMP generation (human GC-A): stimulated cGMP generation

CNP: C-type natriuretic peptide, used as a positive control in HEK293 GC-B cells [reference compound]
cGMP generation (positive control) (human GC-B; HEK293 GC-B cells, 10^-8 M): significant cGMP generation response

KYKGANKKGLSKGCFGLKLDRIGSMSGLGCPSLRDPRPNAPSTSA [CRRL-408]
plasma cGMP (normal rats): significantly elevated
urinary cGMP (normal rats): significantly elevated
intracellular cGMP levels [1]: increased intracellular cGMP levels in a dose dependent manner
intracellular cGMP levels [2]: increased intracellular cGMP levels in a dose dependent manner
cGMP generation (human GC-B): stimulated cGMP generation
cGMP generation (human GC-A): stimulated cGMP generation

KKGLSKGCFGLKLDRIGSMSGLGCPSLRDPRPNAPSTSA [CRRL-404]
cGMP generation (human GC-B): stimulated cGMP generation
cGMP generation (human GC-A): stimulated cGMP generation

ANP: natriuretic peptide used as a positive control in HEK293 GC-A cells [reference compound]
cGMP generation (positive control) (human GC-A; HEK293 GC-A cells, 10^-8 M): significant cGMP generation response

ANKKGLSKGCFGLKLDRIGSMSGLGCPSLRDPRPNAPSTSA [CRRL-405]
cGMP generation (human GC-B): stimulated cGMP generation
cGMP generation (human GC-A): stimulated cGMP generation

KGANKKGLSKGCFGLKLDRIGSMSGLGCPSLRDPRPNAPSTSA [CRRL-407]
cGMP generation (human GC-B): stimulated cGMP generation
cGMP generation (human GC-A): stimulated cGMP generation
